Positions of bridges follow the written chain, without caps; N, C: chain ends. No end group written: not given here.
Assays:
[1] = target: T1, FXIIa (Homo sapiens, UniProt P00748); experiment: Enzyme kinetics, chromogenic substrate, FXIIa; assay type: biochemical; details: sample 10 μM
T1 sequence (P00748 373-615 limits assumed): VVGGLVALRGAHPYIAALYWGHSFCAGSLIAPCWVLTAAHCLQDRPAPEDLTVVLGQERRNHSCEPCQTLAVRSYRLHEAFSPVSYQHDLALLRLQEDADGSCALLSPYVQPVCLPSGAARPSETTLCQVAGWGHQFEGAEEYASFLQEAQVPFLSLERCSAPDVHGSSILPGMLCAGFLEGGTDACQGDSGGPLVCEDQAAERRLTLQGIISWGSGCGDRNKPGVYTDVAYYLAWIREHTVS
Protocol: (§1) In a 96-well plate, 10 μL of the sample and 10 μL of FXIIa with a final concentration of 0.2 μM were mixed in 40 μL of buffer (100 mM NaCl, 50 mM Tris-HCl (pH 8.0), 5 mM CaCl2), allowed to stand at room temperature for 5 min. A mixture of 30 μL of buffer and 10 μL of chromogenic substrate with a final concentration of 0.04 mM was added to each well, the final volume was 100 μL. The kinetics of the coagulation reaction was measured using an Epoch (BioTek) microplate reader and GEN CHS 1.09 software, OD 405 nm, 20 min, with 47 s intervals. The concentration of the sample was 10 μM.

[2] = target: kallikrein; experiment: Enzyme kinetics, kallikrein; assay type: biochemical
Protocol: [Worded in the source for another target; this target is reported under the same test.] as §1

[3] = target: thrombin (Homo sapiens, UniProt P00734); experiment: Enzyme kinetics, thrombin; assay type: biochemical; details: sample 10 μM
[4] = tested on: plasminogen; experiment: Enzyme kinetics, plasminogen; assay type: biochemical; details: sample 10 μM
[5] = target: FXa (Homo sapiens, UniProt P00742); experiment: Enzyme kinetics, FXa; assay type: biochemical; details: sample 10 μM
[6] = tested on: endogenous coagulation pathway (normal plasma); experiment: APTT experiment; details: OD 650 nm
Protocol: (§2) The APTT reagent was equilibrated to room temperature and the APTT reagent was mixed by gentle inversion; 50 μL of the reagent, 50 μL of normal plasma and 5 μL of the sample were mixed and incubated in a 37° C. water bath for 3 min; 50 μL of pre-warmed CaCl2 solution was added, mixed immediately; the OD 650 nm was detected with a microplate reader. PT experiment: prothrombin reagent was pre-warmed at 37° C. for 15 min; 50 μL of normal plasma and 5 μL of the sample were incubated in a 37° C. water bath for 3 min; 100 μL of pre-warmed prothrombin reagent was added, mixed immediately; OD 650 nm was detected with a microplate reader.

[7] = tested on: normal plasma; experiment: PT experiment; details: OD 650 nm
Protocol: as §2

[8] = tested on: tail thrombosis; experiment: Carrageenan-induced rat tail thrombosis model; assay type: in vivo, Kunming mice; details: for effect on tail thrombosis (average length of thrombus) compared with control group: each time point 12, 24, 36, 48 h, Sylvestin 2 and 4 mg/kg, heparin sodium 500 U/mouse, t-test p<0.05
Protocol: [Worded in the source for another organism; this organism is reported under the same test.] Kunming mice were used as experimental animals, body weight 25 to 30 g (provided by the Experimental Animal Center of Kunming Medical College). After one week of housing, they were randomly divided into groups (n=6), half male and half female. One group was a physiological saline control group, the sample groups were Sylvestin synthesized in Example 2 at a dose of 2 mg/kg and 4 mg/kg, respective, and the positive control was given heparin sodium (Beijing Dingguo Changsheng Biotechnology Co., Ltd.), 500 U/mouse. 30 minutes after tail vein administration, carrageenan (carrageenan, type I, Sigma, dissolved in physiological saline to a concentration of 1%) was injected from the abdomen of the mice at a dose of 60 mg/kg, since the thrombosis rate was >90% in a low temperature environment, the housing temperature was set at 17.5° C. After 12, 24, 36, and 48 h, the average length of thrombus was determined according to the color change of the tail skin. Referring to FIG. 1, the average length of thrombus in each group increased with time. […] Data processing was Graphpad Prime 5, data mean±SD, t-test (*p<0.05).

[9] = tested on: cerebral ischemia and reperfusion injury; experiment: Acute cerebral ischemic intraluminal thread model; assay type: in vivo, Kunming mice; details: 1, 3, 5 mg/kg i.v. tail vein; 1 h ischemia, assessed at 24 h
Protocol: Kunming mice (30 to 35 g) were anesthetized with 2% sodium pentobarbital (80 mg/kg). After medium-deep anesthesia, a midline neck incision was made, the skin and subcutaneous tissue of the mice were incised layer by layer, the sternocleidomastoid muscle was separated, the anterior belly of the digastric muscle was incised off, the right common carotid artery (CCA), internal carotid artery (ICA) and external carotid artery (ECA) were exposed, an electric coagulator was used to coagulate thyroid artery and pharyngeal artery over the ECA and they were cut off. Ligation of the distal end of the ECA was performed, seton was placed at the proximal end, CCA and ICA were temporarily closed using a clip, the ECA was cut off, an intraluminal thread was inserted into the ICA from the ECA stump, ligation of the ECA stump was performed, the artery clip of the ICA was removed, pushed inward and upward from the ICA. […] Cerebral ischemia for 24 h, and the neurological deficit score was assessed and recorded according to the Bederson Scale assessment: 0 is no dysfunction; 1 is being unable to extend the right forelimb; 2 is rotating to right; 3 is dumping to right; 4 is no autonomous activity with disturbance of consciousness; 5 is death. […]

[10] = Isoelectric focusing electrophoresis; assay type: physicochemical
Protocol: 3.3 The purity of the purified Haemadipsa sylvestris antithrombotic peptide was determined by HPLC, the molecular weight was determined by fast atom bombardment mass spectrometry, the isoelectric point was determined by isoelectric focusing electrophoresis, and the amino acid sequence was determined by automatic amino acid sequencer.

Chain of FXa (P00742 235-488 limits assumed): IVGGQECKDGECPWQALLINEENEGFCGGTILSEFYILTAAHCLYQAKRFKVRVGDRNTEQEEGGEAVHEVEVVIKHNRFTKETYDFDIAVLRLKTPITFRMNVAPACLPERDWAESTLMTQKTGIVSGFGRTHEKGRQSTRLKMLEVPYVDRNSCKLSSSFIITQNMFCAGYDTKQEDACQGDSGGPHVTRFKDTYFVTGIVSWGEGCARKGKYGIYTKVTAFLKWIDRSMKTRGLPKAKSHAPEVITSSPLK
Chain of FXa (P00742 41-179 partner limits assumed): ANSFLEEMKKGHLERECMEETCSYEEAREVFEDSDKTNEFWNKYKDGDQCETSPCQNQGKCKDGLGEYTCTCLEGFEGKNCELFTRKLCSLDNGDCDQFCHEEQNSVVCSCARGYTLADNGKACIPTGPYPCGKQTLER

| Substance | inhibitory effect on FXIIa [1] | Ki ([2]; read-out: inhibition constant on kallikrein) [nM] | inhibitory effect on kallikrein ([2]; sample 10 μM) | inhibitory effect on thrombin [3] | inhibitory effect on plasminogen [4] | inhibitory effect on FXa [5] | effect in APTT experiment [6] | effect in PT experiment [7] | inhibition rate against thrombus versus dose ([8]; 2 mg/kg and 4 mg/kg) | inhibition rate against thrombosis over time ([8]; 12 to 48 h) | change of length of thrombus from 12 h to 24 h [8] | inhibitory effect on thrombosis compared with control group after 48 h ([8]; 48 h, tail vein) | effect on tail thrombosis (average length of thrombus) compared with control group ([8]; tail vein) | injury caused by cerebral ischemia and reperfusion (Bederson score, ischemic volume) [9] | isoelectric point [10] |
| --- | --- | --- | --- | --- | --- | --- | --- | --- | --- | --- | --- | --- | --- | --- | --- |
| TSEPVCACPKMLFWVCGKDGETYTHPCIAKCHNVEVEHDGKCK (disulfide 6-31, 8-27, 16-42) [Sylvestin] | can inhibit | 17.8 | can inhibit | no inhibitory effect | no inhibitory effect | no inhibitory effect | concentration-dependent effect | no effect | increased as concentration increased | decreased over time | increased slightly | significant inhibitory effect | statistically significant | effectively alleviate the injury | 6.28 |
| heparin sodium [reference compound] |  |  |  |  |  |  |  |  |  |  | doubled |  | statistically significant |  |  |
